We go through seven molecules from patent US20240408169A1 (priority 2023, published 2024).

Structures are written as SMILES. *1 amine or outer side, *2 acyl side, *3 side chain or, on linkers, in order; H or OH if unused. Where a SMILES comes first, the peptide text is derived from it. Bridges are numbered along the chain shown (N, C = ends). [ ]: non-standard residue; d: D form. The star is where a group is joined. X126 = CC(C)C(=O)N1[C@H]2COC[C@@H]1C=C(c1ccc(F)cc1C[C@@H](C(=O)[*:2])N(C)[*:1])C2; X205 = CC(C)C(=O)N1[C@@H]2COC[C@H]1C=C(c1ccc(F)cc1C[C@@H](C(=O)[*:2])N(C)[*:1])C2; X190 = CC(=O)N1CC(Oc2ncc(Cl)cc2C[C@@H](C(=O)[*:2])N(C)[*:1])C1; NMehhhLys(Me) = CN([C@@H](CCCCCCCN(C)[*:3])C(=O)[*:2])[*:1]; X206 = CN([C@@H](Cc1cc(Cl)cnc1Cc1cnn(C)c1)C(=O)[*:2])[*:1]; NMe(hhhLys) = CN([C@@H](CCCCCCCN[*:3])C(=O)[*:2])[*:1]; Oxane2carbonyl(2R-CF3) = O=C([C@@]1(C(F)(F)F)CCCCO1)*; cBuCO(3,3-F2-1-CF3) = O=C(C1(C(F)(F)F)CC(F)(F)C1)*; X133 = Cc1ncc(Cl)cc1C[C@@H](C(=O)[*:2])N(C)[*:1]; Pro(trans-4-F) = O=C(O)[C@@H]1C[C@@H](F)CN1; Gly(cPr) = N[C@H](C(=O)O)C1CC1

For orientation: IC50 means the concentration at which inhibition is half-maximal. Broadly, the GI50 is the concentration giving 50% growth inhibition. A low value points to greater sensitivity of the cells.

One test deals with T1, CyclinE1/CDK2 (Homo sapiens, UniProt P24864).
T1 construct: purchased Eurofins, discovery 14-475
Nature of the test: Fluorescence Polarization (FP) competitive binding assay, Cyclin E1/Cdk2.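 Further: readings taken after two-hour equilibration at room temperature in HEPES buffer with NaCl, DTT, NP-40 and BSA, IC50 fitted from eight-concentration serial dilution series.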 Particulars: 10 nM Cyclin E1/Cdk2, 2 nM FAM probe; average of 2-3 independent experiments; read-out: Cyclin E FP IC50. (In general: In fluorescence polarisation assays a small probe gives low polarisation when free and higher when bound to something large.)

Another test has as its target T2, CyclinB1/CDK1 (Homo sapiens, UniProt P14635).
T2 construct: purchased Eurofins, discovery 14-450
Nature of the test: Fluorescence Polarization (FP) competitive binding assay, Cyclin B1/Cdk1.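 Further: fluorescence polarization read after equilibration at room temperature, with IC50 taken from serially diluted dose-response curves.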 As to conditions: 10 nM Cyclin B1/Cdk1, 2 nM FAM probe; average of 2-3 independent experiments; read-out: Cyclin B FP IC50.

A further test concerns NCI-H1048 cells. Nature of the test: MTT proliferation assay, NCI-H1048.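 Further: Dose-response in 96-well plates over 8 or 10 concentration points, with exposure spanning 3-4 cell doublings.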 The class given is cell-based. As to conditions: 5 days compound exposure, 1:3 serial dilution starting at 10 μM.
In a further test the target is T3, CyclinA2/CDK2 (Homo sapiens, UniProt P20248).
T3 construct: purchased CRELUX Protein Services
Nature of the test: Fluorescence Polarization (FP) competitive binding assay, Cyclin A2/Cdk2.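 Further: plates equilibrated two hours at room temperature before polarization reading, IC50 fitted from eight-concentration compound titration curves.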 As to conditions: 8 nM Cyclin A2/Cdk2, 2 nM FAM probe; average of 2-3 independent experiments; read-out: Cyclin A FP IC50.

For a further test, the system named is OVCAR3 cells. Nature of the test: MTT proliferation assay, OVCAR3.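 Further: compound given as an 8- or 10-point series, one day after plating, with exposure covering roughly 3-4 cell doublings.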 Particulars: 5 days compound exposure, 1:3 serial dilution starting at 10 μM. The class given is cell-based. (Tetrazolium assays rely on reduction of a dye to a coloured formazan, in cell work by metabolically active cells.)

As to `CC(=O)N1CC(Oc2ncc(Cl)cc2C[C@H]2C(=O)N(C)CCCCCCC[C@H](N(C)C(=O)[C@@H](NC(=O)[C@@H]3C[C@@H](F)CN3C(=O)C3(C(F)(F)F)CC(F)(F)C3)C3CC3)C(=O)N[C@@H](CC(C)C)C(=O)N2C)C1` [Example 324] ({cBuCO(3,3-F2-1-CF3)}-[Pro(trans-4-F)][Gly(cPr)][NMehhhLys(Me)]L[X190]; lactam 3-C), the IC50 on CyclinE1/CDK2 came to 520 nM; at CyclinB1/CDK1, 20 nM; on CyclinA2/CDK2 it was 60 nM. In addition, the GI50 in the test with NCI-H1048 cells was found to be 40 nM; in the test on OVCAR3 cells it was 80 nM.
As for `CC(C)C[C@@H]1NC(=O)[C@@H](N(C)C(=O)[C@@H](NC(=O)[C@@H]2C[C@@H](F)CN2C(=O)C2(C(F)(F)F)CC(F)(F)C2)C2CC2)CCCCCCCNC(=O)[C@H](Cc2cc(F)ccc2C2=C[C@@H]3COC[C@H](C2)N3C(=O)C(C)C)N(C)C1=O` [Example 325] ({cBuCO(3,3-F2-1-CF3)}-[Pro(trans-4-F)][Gly(cPr)][NMe(hhhLys)]L[X205]; lactam 3-C), the concentration for half-maximal inhibition (IC50) amounted to 300 nM at CyclinE1/CDK2, 20 nM at CyclinB1/CDK1 and 20 nM on CyclinA2/CDK2. Besides, the GI50 with NCI-H1048 cells and in the test on OVCAR3 cells was 10 nM each time.
For the molecule `CC(C)C[C@@H]1NC(=O)[C@@H](N(C)C(=O)[C@@H](NC(=O)[C@@H]2C[C@@H](F)CN2C(=O)C2(C(F)(F)F)CC(F)(F)C2)C2CC2)CCCCCCCNC(=O)[C@H](Cc2cc(F)ccc2C2=C[C@H]3COC[C@@H](C2)N3C(=O)C(C)C)N(C)C1=O` [Example 326] ({cBuCO(3,3-F2-1-CF3)}-[Pro(trans-4-F)][Gly(cPr)][NMe(hhhLys)]L[X126]; lactam 3-C), the half-maximal inhibitory concentration (IC50) on CyclinE1/CDK2 amounted to 150 nM; at CyclinB1/CDK1, 20 nM; on CyclinA2/CDK2, 20 nM. The GI50 in the test with NCI-H1048 cells and in the test with OVCAR3 cells was 10 nM each time.
As to `CC(C)C[C@@H]1NC(=O)[C@@H](N(C)C(=O)[C@@H](NC(=O)[C@@H]2C[C@@H](F)CN2C(=O)C2(C(F)(F)F)CC(F)(F)C2)C2CC2)CCCCCCCN(C)C(=O)[C@H](Cc2cc(F)ccc2C2=C[C@H]3COC[C@@H](C2)N3C(=O)C(C)C)N(C)C1=O` [Example 328] ({cBuCO(3,3-F2-1-CF3)}-[Pro(trans-4-F)][Gly(cPr)][NMehhhLys(Me)]L[X126]; lactam 3-C), the values for the IC50 on CyclinE1/CDK2, on CyclinB1/CDK1 and at CyclinA2/CDK2 were 210 nM, 20 nM and 20 nM, respectively. The GI50 in the test on NCI-H1048 cells and in the test with OVCAR3 cells was 10 nM throughout.
In the case of `CC(C)C[C@@H]1NC(=O)[C@@H](N(C)C(=O)[C@@H](NC(=O)[C@@H]2C[C@@H](F)CN2C(=O)C2(C(F)(F)F)CC(F)(F)C2)C2CC2)CCCCCCCN(C)C(=O)[C@H](Cc2cc(F)ccc2C2=C[C@@H]3COC[C@H](C2)N3C(=O)C(C)C)N(C)C1=O` [Example 329] ({cBuCO(3,3-F2-1-CF3)}-[Pro(trans-4-F)][Gly(cPr)][NMehhhLys(Me)]L[X205]; lactam 3-C), the half-maximal inhibitory concentration (IC50) was 250 nM on CyclinE1/CDK2, 20 nM on CyclinB1/CDK1 and 20 nM on CyclinA2/CDK2. The concentration for 50% growth inhibition (GI50) with NCI-H1048 cells and in the test with OVCAR3 cells was 10 nM in each case.
In the case of `Cc1ncc(Cl)cc1C[C@H]1C(=O)NCCCCCCC[C@H](N(C)C(=O)[C@@H](NC(=O)[C@@H]2C[C@@H](F)CN2C(=O)C2(C(F)(F)F)CC(F)(F)C2)C2CC2)C(=O)N[C@@H](CC(C)C)C(=O)N1C` [Example 331, (2S,4R)—N—((S)-2-(((3S,6S,9S)-3-((5-chloro-2-methylpyridin-3-yl)methyl)-6-isobutyl-4-methyl-2,5,8-trioxo-1,4,7-triazacyclohexadecan-9-yl)(methyl)amino)-1-cyclopropyl-2-oxoethyl)-1-(3,3-difluoro-1-(trifluoromethyl)cyclobutane-1-carbonyl)-4-fluoropyrrolidine-2-carboxamide] ({cBuCO(3,3-F2-1-CF3)}-[Pro(trans-4-F)][Gly(cPr)][NMe(hhhLys)]L[X133]; lactam 3-C), the 50% inhibitory concentration (IC50) at CyclinE1/CDK2 was determined as 1140 nM; at CyclinB1/CDK1 it was 20 nM; at CyclinA2/CDK2 it was 170 nM. The concentration for 50% growth inhibition (GI50) with NCI-H1048 cells amounted to 60 nM; in the test with OVCAR3 cells, 50 nM.
The matching figures for `CC(C)C[C@@H]1NC(=O)[C@@H](N(C)C(=O)[C@@H](NC(=O)[C@@H]2C[C@@H](F)CN2C(=O)[C@@]2(C(F)(F)F)CCCCO2)C2CC2)CCCCCCCN(C)C(=O)[C@H](Cc2cc(Cl)cnc2Cc2cnn(C)c2)N(C)C1=O` [Example 332] ({Oxane2carbonyl(2R-CF3)}-[Pro(trans-4-F)][Gly(cPr)][NMehhhLys(Me)]L[X206]; lactam 3-C): 100 nM, 20 nM, 20 nM, 10 nM and 10 nM.
